Read-outs that look alike come from different tables or passages of the source.

Test [1] concerns other constitutively active resting conductance in microglia. The test can be described thus: Whole-cell patch clamp of microglia in hippocampal slices: other resting and voltage-dependent currents. Format: cell-based, mouse. The settings on record: 5 μM. The procedure:
Acute hippocampal slices (300 μm thick), from 3 to 4 months old mice, were prepared using a specially adapted protective slicing solution ([Ting et al., 2014]) containing (mM) 93 choline chloride, 20 HEPES, 30 NaHCO3, 2.5 KCl, 0.5 CaCl2, 10 MgCl2, 1.2 NaH2PO4, 25 glucose, 1 kynurenic acid, 5 Na-ascorbate, 3 Na-pyruvate, pH adjusted to 7.4, bubbled with 95% O2/5% CO2 and cooled at <4 °C, and a recovery solution containing (mM) 92 NaCl, 20 HEPES, 30 NaHCO3, 2.5 KCl, 2 CaCl2, 1 MgCl2, 1.2 NaH2PO4, 25 glucose, 1 kynurenic acid, 5 Na-ascorbate, 3 Na-pyruvate, pH set to 7.4 and bubbled with 95% O2/5% CO2
Immediately after slicing, slices were placed for 13 min in warm (33–35 °C) slicing solution and then transferred to recovery solution at room temperature until experimental usage. […] Slices were perfused with bicarbonate-buffered solution, at 34–36 °C for all experiments, containing (mM) 124 NaCl, 2.5 KCl, 26 NaHCO3, 1 NaH2PO4, 2 CaCl2, 1 MgCl2, 10 glucose, bubbled with 95% O2/5% CO2. Microglia were whole-cell clamped with electrodes containing K-gluconate based solution, comprising (mM) 130 K-glu, 4 NaCl, 1 CaCl2, 10 HEPES, 10 EGTA, 4 MgATP, 0.5 Na2GTP, pH set to 7.2 with KOH and osmolarity adjusted to […]. […] Currents were filtered at 1 kHz, digitized (10 kHz) and analysed off-line using pClamp10 software.
Background: In patch-clamp work, channel activity is measured electrically.

A further test addresses T1, THIK-1 (Homo sapiens, UniProt Q9HB14).
T1 construct: expressed in transfected cells
T1 sequence (Q9HB14 1-408): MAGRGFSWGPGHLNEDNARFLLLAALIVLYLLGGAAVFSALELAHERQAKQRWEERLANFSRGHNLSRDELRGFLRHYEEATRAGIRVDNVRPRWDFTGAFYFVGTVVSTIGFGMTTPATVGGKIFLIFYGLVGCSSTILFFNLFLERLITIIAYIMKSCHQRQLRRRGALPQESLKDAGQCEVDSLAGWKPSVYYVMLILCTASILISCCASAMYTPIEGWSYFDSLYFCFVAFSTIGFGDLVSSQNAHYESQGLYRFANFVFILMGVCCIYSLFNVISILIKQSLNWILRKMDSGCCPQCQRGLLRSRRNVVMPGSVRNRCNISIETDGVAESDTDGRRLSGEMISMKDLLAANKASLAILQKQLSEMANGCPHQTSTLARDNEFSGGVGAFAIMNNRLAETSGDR
The test can be described thus: Thallium flux functional wash-off assay, HEK-hTHIK-1 cells. Format: cell-based. The procedure:
A fluorescence-based thallium influx assay (Molecular Devices potassium assay kit) was used to monitor channel activity. In brief, component A was reconstituted in 17 ml of chloride-free assay buffer (130 mM sodium D-gluconate, 5 mM potassium D-gluconate, 2 mM calcium D-gluconate, 1 mM magnesium D-gluconate, 5 mM NaHCO3, 20 mM HEPES; pH adjusted to 7.4 with NaOH and filtered (0.45 μm filter)) and component C reconstituted in 30 μl of DMSO. Components A and C were combined, and probenecid was added (Life Technologies; final assay concentration (FAC) 4.75 mM for HEK cell lines and 2.47 mM for CHO-Kv2.1) to provide the final dye solution. Media was removed from the cell plates and replaced with dye (20 μl/well) and the plates were incubated at room temperature in the dark for 60 min. On the day of the assay, a diluted compound plate (3x FAC in 1.5% DMSO) was created. Control wells contained either DMSO vehicle (1.5%, 3x FAC) or tetrapentylammonium chloride (TPA; Sigma, 258962; 1.5 mM in 1.5% DMSO, 3x FAC). A 3x thallium stimulation plate was also prepared, to provide a FAC of either 1 mM (human THIK-1) or 3 mM (mouse THIK-1, TREK-1, TWIK-2) thallium sulphate (in assay buffer). For Kv2.1, the FAC of thallium sulphate was 2.6 mM and this was prepared in assay buffer containing potassium sulphate (Sigma P9458; FAC 23.3 mM). Following 60 min of dye loading, 10 μl from the 3x FAC compound plate was added into the cell plate, which was then incubated for 15 min at room temperature in the dark. Using a fluorescent imaging plate reader (FLIPR) tetra plate reader, 15 μl thallium stimulus solution was added to the cell plate and the fluorescence signal recorded every second for 1 min (excitation: 470–495 nm, emission: 515–575 nm).
For the functional wash-off assay, plates were tested in parallel that were run as standard (no wash) with plates that had undergone an additional assay buffer wash and incubation period following compound addition. Briefly, after a 15 min compound incubation, plates were either moved to the FLIPR for immediate thallium addition (standard) or the plates were washed with assay buffer to remove compound solutions (50 μl/well addition and removal), 30 μl/well assay buffer added and the plates incubated for 60 min, followed by thallium addition on the FLIPR (60 min wash).

The IC50 is the concentration that inhibits the measured activity by half. Regarding `Nc1nonc1-c1nc2ccccc2n1Cc1ccncc1` [C101248], in test [1] (microglia voltage-clamped at 0 mV, THIK-1 KO mice), the “effect on baseline membrane current in THIK-1 KO mice” value is on record as “no further changes”. Further, in test [1] (voltage steps −150 mV to +60 mV), the “effect on inward or outward currents induced by depolarising voltage steps” value was “no effect”. On THIK-1 (60 min wash), the “Hill slope (nH)” value came out at 0.54 and the “maximum inhibition (60 min wash)” value stood at 93%. Moreover, the “lower potency after 60 min wash-off compared to standard format” value on THIK-1 (60 min wash vs no wash) was 3.4 fold. In addition, the IC50 at THIK-1 (compound removed, 60 min incubation in buffer before thallium, read-out: IC50 (60 min wash)) amounted to 96 nM. On THIK-1 (no wash), the “Hill slope (nH)” value turned out to be 1.3 and the “maximum inhibition (no wash)” value is 101%. The IC50 at THIK-1 (standard format, 15 min compound incubation, immediate thallium addition, read-out: IC50 (no wash)) worked out at 28 nM.
